Assay results reported in patent US20240082311A1, “COMPOSITIONS AND METHODS FOR TREATING SPINAL CORD INJURIES” (ASTERIAS BIOTHERAPEUTICS, INC., priority 2021, published 2024).

B1: Decorin: small leucine-rich proteoglycan, TGF-β1/2 antagonist; recombinant form tested in rat SCI models (protein, UniProt P07585 31-359, looked up)
Decorin: DEASGIGPEVPDDRDFEPSLGPVCPFRCQCHLRVVQCSDLGLDKVPKDLPPDTTLLDLQNNKITEIKDGDFKNLKNLHALILVNNKISKVSPGAFTPLVKLERLYLSKNQLKELPEKMPKTLQELRAHENEITKVRKVTFNGLNQMIVIELGTNPLKSSGIENGAFQGMKKLSYIRIADTNITSIPQGLPPSLTELHLDGNKISRVDAASLKGLNNLAKLGLSFNSISAVDNGSLANTPHLRELHLDNNKLTRVPGGLAEHKYIQVVYLHNNNISVVGSSDFCPPGHNTKKASYSGVSLFSNPVQYWEIQPSTFRCVYVRSAIQLGNYK

Key:
[1] = tested on: participants with neurologically complete thoracic spinal cord injury (T3-T11); test: Phase 1 thoracic SCI trial (NCT01217008): safety, adverse events; assay type: in vivo, human; conditions: N=5
Description: Study design. The trial design was an open-label, multicenter study. A single dose of 2×10^6 LCTOPC1 was injected within 7 to 14 days following SCI. Subjects who received LCTOPC1 also received tacrolimus to prevent rejection.
This study was a Phase 1, multi-center, non-randomized, a single group assignment interventional clinical trial. The Participants were enrolled from one of seven centers in the United States. The study was registered (NCT01217008) and the primary endpoint was safety, as measured by the frequency and severity of adverse events related to LCTOPC1, the injection procedure used to administer LCTOPC1, and/or the concomitant immunosuppression administered. The secondary endpoint was neurological function as measured by sensory scores and lower extremity motor scores on ISNCSCI examinations.
Safety Assessments. The primary endpoint of the Phase 1 clinical trial was safety, as measured by the frequency and severity of adverse events (AEs) within 1 year of LCTOPC1 injection that were related to LCTOPC1, the injection procedure used to administer LCTOPC1, and/or the concomitant immunosuppression administered. […]
Definition of an Adverse Event. […] The severity of AEs and the characterization of Serious Adverse Events (SAEs) were evaluated using standard FDA criteria.
The relationship of AEs to the investigational drug was determined by each site investigator and was categorized as “Possibly Related” based on the following criteria: 1) the AE was reasonably related in time with LCTOPC1 exposure, the injection procedure used to administer LCTOPC1, and/or the concomitant immunosuppression administered AND 2) the AE could be explained either by exposure to the investigational product or equally well by factors or causes other than exposure to the investigational product. Adverse events were monitored by the External Medical Monitor, Sponsor Medical Monitor, and DSMB.

[2] = tested on: subjects with subacute cervical spinal cord injury (C4-C7, AIS A/B); test: Phase 1/2a cervical SCI dose escalation study: safety, adverse events, MRI; assay type: in vivo, human
Description: Study Design. The trial design was an open-label, staggered dose escalation, cross-sequential, multicenter study. Three sequential, escalating doses of AST-OPC1 were administered at a single tie point between 21 and 42 days post-injury to subjects with subacute cervical spinal cord injuries (SCI). Subjects received AST-OPC1 via direct intra-spinal injection using a Syringe Positioning Device (SPD). To prevent rejection of engraftment, low dose tacrolimus was initiated 6 to 12 hours after and intra-spinal injection, and continued for 46 days, tapered from Day 46 to Day 60, and was discontinued at Day 60. Subjects were followed for 1 year following administration of AST-OPC1 under this protocol. Male or female subjects from 18 to 69 years of age at time of consent with sensorimotor complete, traumatic SCI (American Spinal Injury Association Impairment Scale A) or sensorimotor incomplete, traumatic SCI (American Spinal Injury Association Impairment Scale B). […] There was a single spinal cord lesion on a post-stabilization magnetic resonance imaging (MRI) scan, with sufficient visualization of the spinal cord injury epicenter and lesion margins to enable post-injection safety monitoring. Subjects were able to participate in an elective surgical procedure to inject AST-OPC1 21 to 42 days following SCI. Subjects received a single dose of either 2×10^6, 1×10^7, or 2×10^7 AST-OPC1 viable cells by injection, administered 21 to 42 days following SCI. The product was delivered intraoperatively into the spinal cord using the Syringe Positioning Device. The AST-OPC1 batch numbers used in this study were M08D1A, M22D1A and M25D1A. Single administration of AST-OPC1 was provided with 1 year of follow-up. Schematics of the planned study timeline, and subject screening and treatment, are provided in FIG. 6 and FIG. 7, respectively. A schematic diagram of the final open-label, staggered dose-escalation, multicenter Phase 1/2a clinical trial is shown in FIG. 8. An overview of study visits for the one-year protocol is presented in the study schema in FIG. 9.
A neurological examination was completed using the standardized International Standards for Neurological Classification of Spinal Cord Injury (ISNCSCI) examination for motor and sensory testing and for designation of the American Spinal Injury Association impairment scale. The ISNCSCI is used for efficacy with respect to improved motor function in the extremities, improved sensory function, and/or a descending neurological level. Safety assessments included physical examination, vital signs, ISNCSCI neurological examination, pain questionnaire (International Spinal Cord Injury Pain Basic Data Set, ISCIPBDS), electrocardiogram (ECG), Magnetic Resonance Imaging (MRI), laboratory tests, concomitant medications, and adverse events (AEs). Results for the ISNCSCI were listed for each subject by scheduled visit and analyzed by change in motor level and motor scores as well as other exploratory assessments of arm/hand function, self-care ability and overall volitional performance. Adverse events were tabulated by system organ class and by preferred term within system organ class according to the Medical Dictionary for Regulatory Activities (MedDRA®) Version 18.0. Statistical analysis of the safety data was performed using descriptive statistical methods including AEs incidence, severity and relatedness to AST-OPC1, to the injection procedure for product administration, and concomitant immunosuppression with tacrolimus. The number of laboratory assessments (hematology, clinical chemistry) that were below, within, or above the normal laboratory reference range were summarized for each analyte at scheduled study visits. Vital signs were summarized by calculating the mean, standard deviation, median, and range of values at each of the protocol-specified time points.
Study Endpoints. […]

[3] = tested on: dorsal funicular lesion (DFL) SCI model; conditions: cited from earlier work

| Molecule | Grade 1 AEs possibly related specifically to tacrolimus (number) [1] | Grade 2 AEs possibly related specifically to tacrolimus (number) [1] | AEs possibly related specifically to the immunosuppression (number of the 25) ([1]; tacrolimus to Day 60, trough 3 to 7 ng/mL) | Hypomagnesemia: Days from Injection ([2]; both, human, in vivo) [days] | Nausea: Days from Injection ([2]; both, human, in vivo) [days] | Decreased Appetite: Severity ([2]; both, human, in vivo, 365 days) | Hypomagnesemia: Severity ([2]; both, human, in vivo, 365 days) | Nausea: Severity ([2]; both, human, in vivo, 365 days) | Bacterial infection: Days from Injection ([2]; causality Tacrolimus) [days] | Bacterial infection: Outcome ([2]; causality Tacrolimus) | Bacterial infection: Severity ([2]; causality Tacrolimus) | Decreased Appetite: Outcome ([2]; in vivo) | Hypomagnesemia: Outcome ([2]; in vivo) | Nausea: Outcome ([2]; in vivo) | Acute scarring and wound cavitation ([3]; DFL SCI model, adult rats) | Axonal regrowth ([3]; acute and chronic experiments, vs PBS-treated DFL) | Inflammation, glial scar formation and CSPG expression ([3]; after acute spinal cord injury) |
| --- | --- | --- | --- | --- | --- | --- | --- | --- | --- | --- | --- | --- | --- | --- | --- | --- | --- |
| C=CC[C@@H]1/C=C(\C)C[C@H](C)C[C@H](OC)[C@H]2O[C@@](O)(C(=O)C(=O)N3CCCC[C@H]3C(=O)O[C@H](/C(C)=C/[C@@H]3CC[C@@H](O)[C@H](OC)C3)[C@H](C)[C@@H](O)CC1=O)[C@H](C)C[C@@H]2OC [Tacrolimus, tacrolimus] | Seven | nine | Sixteen | 5 to 43 | 7 | Grade 2 | Grade 1-2 | Grade 2 | 30 | Resolved | Grade 3 | Resolved | Resolved | Resolved | – | – | – |
| B1 | – | – | – | – | – | – | – | – | – | – | – | – | – | – | suppressed acute scarring (fibrogenesis) and wound cavitation | promoted axonal regrowth | inhibit inflammation, glial scar formation and CSPG expression |
